Data taken from US5792777A, “Biphenyl quinuclidines” (Zeneca Limited, priority 1991, dated 1998).

Columns and labels:
Squalene Synthetase = biological target: T1, Squalene Synthetase (Rattus norvegicus, UniProt Q02769); test: Inhibition of Squalene Synthetase (formation of squalene from tritiated farnesyl pyrophosphate, rat liver microsomal protein); type: biochemical; details: 20 μM 1-[3H]-farnesyl pyrophosphate, 15 minutes, 37° C., read-out: IC50 (concentration which results in a 50% inhibition of squalene production)
T1 construct: from tissue; host or cells: rat liver microsomes
T1 sequence (Q02769 1-416): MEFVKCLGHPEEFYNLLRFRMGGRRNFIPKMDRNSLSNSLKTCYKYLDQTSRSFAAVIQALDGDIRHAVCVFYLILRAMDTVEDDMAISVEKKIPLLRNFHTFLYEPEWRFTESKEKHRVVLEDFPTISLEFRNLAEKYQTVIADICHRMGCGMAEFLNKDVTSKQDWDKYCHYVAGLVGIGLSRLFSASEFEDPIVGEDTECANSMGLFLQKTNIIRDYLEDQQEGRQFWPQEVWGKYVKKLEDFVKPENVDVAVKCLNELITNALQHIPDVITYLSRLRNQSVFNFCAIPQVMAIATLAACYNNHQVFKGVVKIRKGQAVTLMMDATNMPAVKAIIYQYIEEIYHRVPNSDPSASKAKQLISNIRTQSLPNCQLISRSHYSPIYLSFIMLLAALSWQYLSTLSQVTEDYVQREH
Procedure: (a) Inhibition of Squalene Synthetase
In this test, the ability of a compound to prevent the formation of squalene from a radioactive substrate (tritiated farnesyl pyrophosphate) is assessed.
The test compound is incubated at a concentration of 25 micromolar in 200 μl of a buffered solution containing potassium phosphate (50 mM), MgCl2 (4.95 mM), KF (9.9 mM), NADPH (0.9 mM) and rat liver microsomal protein (20 μg). Rat liver microsomes are prepared by the method described in published European Patent Application No. 324,421 and stored in liquid nitrogen prior to assay. Assay vials are kept at 37° C. throughout the incubation.
The reaction is started with the addition of the substrate (1-[^3 H]-farnesyl pyrophosphate), final concentration 20 μM, and stopped after 15 minutes reaction time with the addition of 50 μl of 4% KOH. The reaction products are separated from unreacted substrate after application to a C-18 octadecyl 1ccBond column (Analytichem Int product No. 617101). An aqueous fraction is eluted with 250 μl of 0.1M KOH. Squalene is then eluted with 1.0 ml 10% ethylacetate in hexane and radioactivity determined. The difference in radioactivity in the presence and absence of the test compound is used to determine the level of inhibition. […] The IC50 can then be determined from a plot of percentage inhibition against concentration of test compound.

[1] = system: de novo hepatic cholesterol synthesis; test: Acute Rat Cholesterol Synthesis Assay (de novo hepatic cholesterol synthesis from exogenously administered 14C-acetate); type: in vivo; details: female rats, oral gavage, ip or iv (route not specified), 14C-acetate ip after 1 hour, blood sample a further hour later
Procedure: (b) Acute Rat Cholesterol Synthesis Assay
This is an acute in vivo test in the rat to measure de novo hepatic cholesterol synthesis from exogenously administered ^14 C-acetate.
Female rats (35-55 g) are housed in reverse lighting conditions (red light from 0200h-1400h) for a period of about 2 weeks prior to test. Animals are allowed free access to chow and drinking water throughout this period. At test, animals should weigh 125-150 g.
Test compounds may be administered by oral gavage, dissolved or suspended in 0.5% polysorbate, or by ip or iv dosing. Control animals receive vehicle alone. After 1 hour the rats are injected ip with 25 μCi [2-^14 C]-acetate (NEN DUPONT. specific activity, 45-60 mCi/mmol NEC-085H, or AMERSHAM specific activity, 50-60 mCi/mmol CFA 14) in a volume of 0.25 ml saline (100 μCi/ml). After a further hour, rats are terminally anaesthetised with halothane and a blood sample obtained from the abdominal vena cava.
1 ml of plasma is lyophilised and then saponified in 2 ml ethanolic KOH (1 part 33% KOH, 9 parts ethanol) at 75° C. for 2 hours. After addition of an equal quantity of water, non-saponifiable lipids are extracted with two 5 ml volumes of hexane. The hexane extracts are evaporated to dryness and the residues dissolved in ethanol to determine cholesterol specific radioactivity. ED50 values can be determined in the standard way.

SMILES	IC50 (Squalene Synthetase)	ED50 [1]
OC1(c2cccc(-c3ccccc3)c2)CN2CCC1CC2 (centres unmarked) [Example 3, 3-(biphenyl-3-yl)-3-hydroxyquinuclidine]	600 nM	
OC1(c2ccc(-c3ccc(F)cc3)cc2)CN2CCC1CC2 (centres unmarked) [Example 6, 3-[4'-fluorobiphenyl-4-yl]-3-hydroxyquinuclidine]		8 mg/kg
